Experimental data as given in patent publication EP1976513B1 (priority 2006, dated 2007).
Structures can show the parent of a compound that is named as a salt. Where two headings read alike, the source gives them in different places.

Assays:
[1] = target: T1, human dopamine reuptake transporter (Homo sapiens, UniProt Q01959); test: cell-based
T1 construct: expressed in transfected cells; host or cells: CHO-K1 or HEK293

[2] = target: human serotonin reuptake transporter (Homo sapiens, UniProt P31645); test: cell-based
[3] = recombinant human dopamine transporter (DAT), read-out: Human IC50 (nM) hDAT
[4] = recombinant human serotonin transporter (SERT), read-out: Human IC50 (nM) hSERT
[5] = Human IC50 (nM) hSERT, recombinant human serotonin transporter (SERT)

T1 sequence (Q01959 whole entry): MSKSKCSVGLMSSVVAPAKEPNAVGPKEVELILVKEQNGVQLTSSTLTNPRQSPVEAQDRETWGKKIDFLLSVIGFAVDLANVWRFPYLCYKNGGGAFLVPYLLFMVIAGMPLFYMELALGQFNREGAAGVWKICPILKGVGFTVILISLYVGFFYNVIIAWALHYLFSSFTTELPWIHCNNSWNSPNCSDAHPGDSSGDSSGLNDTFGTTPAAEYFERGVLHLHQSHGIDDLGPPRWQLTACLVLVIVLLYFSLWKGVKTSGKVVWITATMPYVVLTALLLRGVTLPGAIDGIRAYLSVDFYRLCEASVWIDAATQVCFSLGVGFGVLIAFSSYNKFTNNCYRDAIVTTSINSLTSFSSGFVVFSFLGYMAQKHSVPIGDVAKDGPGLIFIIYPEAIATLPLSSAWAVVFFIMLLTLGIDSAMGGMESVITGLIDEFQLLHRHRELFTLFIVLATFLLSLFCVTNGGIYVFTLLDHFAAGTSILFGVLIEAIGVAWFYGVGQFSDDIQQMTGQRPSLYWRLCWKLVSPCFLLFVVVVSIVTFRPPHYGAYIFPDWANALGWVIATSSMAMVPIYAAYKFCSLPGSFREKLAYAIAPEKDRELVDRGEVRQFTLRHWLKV
Sequence of human serotonin reuptake transporter (P31645 whole entry): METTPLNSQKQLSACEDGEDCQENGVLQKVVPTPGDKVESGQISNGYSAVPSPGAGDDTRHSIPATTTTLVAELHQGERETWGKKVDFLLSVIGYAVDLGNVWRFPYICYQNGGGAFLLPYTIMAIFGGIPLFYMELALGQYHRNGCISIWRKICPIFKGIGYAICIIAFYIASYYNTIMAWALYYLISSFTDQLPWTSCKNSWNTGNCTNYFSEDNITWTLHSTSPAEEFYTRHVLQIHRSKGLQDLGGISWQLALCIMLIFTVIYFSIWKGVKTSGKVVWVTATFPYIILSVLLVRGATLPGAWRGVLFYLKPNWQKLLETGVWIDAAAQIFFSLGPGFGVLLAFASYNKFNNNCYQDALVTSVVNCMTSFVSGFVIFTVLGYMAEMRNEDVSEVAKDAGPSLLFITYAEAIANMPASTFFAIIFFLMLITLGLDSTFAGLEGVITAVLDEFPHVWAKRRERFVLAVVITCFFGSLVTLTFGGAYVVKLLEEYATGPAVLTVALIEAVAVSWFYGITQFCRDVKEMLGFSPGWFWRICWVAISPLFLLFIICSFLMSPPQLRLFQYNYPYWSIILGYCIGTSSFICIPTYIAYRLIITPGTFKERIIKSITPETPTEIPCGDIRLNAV

| SMILES | IC50 [1, 3] [nM] | IC50 [2, 4] [nM] | further results |
| --- | --- | --- | --- |
| OC1Cc2ccccc2C1NCC1(c2ccc(Cl)c(Cl)c2)CCCCC1 (racemic) [Compound 113, 1-((1-(3,4-dichlorophenyl)cyclohexyl)methylamino)-2,3-dihydro-1H-inden-2-ol] | 285 | 2570 | – |
| CC1CCCN(CC2(c3ccc(Cl)c(Cl)c3)CCCCC2)C1 (racemic) [Compound 114, 1-((1-(3,4-dichlorophenyl)cyclohexyl)methyl)-3-methylpiperidine] | 16 | – | IC50 ([2]; Human IC50 (nM) hSERT): > 10000 nM |
| CC1CCCN1CC1(c2ccc(Cl)c(Cl)c2)CCCCC1 (racemic) [Compound 115, 1-((1-(3,4-dichlorophenyl)cyclohexyl)methyl)-2-methylpyrrolidine] | < 1 | – | IC50 ([2]; Human IC50 (nM) hSERT): > 10000 nM |
| OC1CCCCC1NCC1(c2ccc(Cl)c(Cl)c2)CCCCC1 (racemic) [Compound 117, 2-((1-(3,4-dichlorophenyl)cyclohexyl)methylamino)cyclohexanol] | 33 | 7900 | – |
| NCC1(c2ccc3ccccc3c2)CC=CCC1 (racemic) [Compound 291, (1-(naphthalen-2-yl)cyclohex-3-enyl)methanamine] | 72 | 185 | – |
| CNCC1(c2ccc3ccccc3c2)CC=CCC1 (racemic) [Compound 292, N-methyl-1-(1-(naphthalen-2-yl)cyclohex-3-enyl)methanamine] | – | – | IC50 ([1]; Human IC50 (nM) hDAT): 89 nM; IC50 ([2]; read-out: Human IC50 (nM) hSERT): 360 nM |
| CNC(=O)[C@]1(c2ccc3ccccc3c2)CCCC[C@H]1O (relative stereo) [Compound 301, trans-2-hydroxy-N-methyl-1-(naphthalen-2-yl)cyclohexanecarboxamide] | 8780 | > 10000 | – |
| CC(N)C1(c2ccc(-c3ccoc3)cc2)CCCCC1 (single isomer, unassigned) [20 E1, 1-(1-(4-(furan-3-yl)phenyl)cyclohexyl)ethanamine] | 369 | 40 | – |
| CC(N)C1(c2ccc(-c3ccoc3)cc2)CCCCC1 (single isomer, unassigned) [20 E2, 1-(1-(4-(furan-3-yl)phenyl)cyclohexyl)ethanamine] | 437 | 60 | – |
| CC(N(C)C)C1(c2cccc3ccccc23)CCCCC1 (single isomer, unassigned) [60 E1, N,N-dimethyl-1-(1-(naphthalen-1-yl)cyclohexyl)ethanamine] | 748 | 184 | – |
| CC(N(C)C)C1(c2cccc3ccccc23)CCCCC1 (single isomer, unassigned) [60 E2, N,N-dimethyl-1-(1-(naphthalen-1-yl)cyclohexyl)ethanamine] | 6740 | 4630 | – |
| CCC(N(C)C)C1(c2ccc(Cl)c(Cl)c2)CCCCC1 (single isomer, unassigned) [61 E1, 1-(1-(3,4-dichlorophenyl)cyclohexyl)-N,N-dimethylpropan-1-amine] | 959 | – | IC50 [2, 5]: 5950 nM |
| CCC(N(C)C)C1(c2ccc(Cl)c(Cl)c2)CCCCC1 (single isomer, unassigned) [61 E2, 1-(1-(3,4-dichlorophenyl)cyclohexyl)-N,N-dimethylpropan-1-amine] | 116 | – | IC50 [2, 5]: 9440 nM |
| CC(N(C)C)C1(c2ccc(OC(F)(F)F)cc2)CCCCC1 (single isomer, unassigned) [63 E1, N,N-dimethyl-1-(1-(4-(trifluoromethoxy)phenyl)cyclohexyl)ethanamine] | 6540 | 194 | – |
| CC(N(C)C)C1(c2ccc(OC(F)(F)F)cc2)CCCCC1 (single isomer, unassigned) [63 E2, N,N-dimethyl-1-(1-(4-(trifluoromethoxy)phenyl)cyclohexyl)ethanamine] | 1820 | 2 | – |
| CNC(C)C1(c2ccc(OC(F)(F)F)cc2)CCCCC1 (single isomer, unassigned) [64 E1, N-methyl-1-(1-(4-(trifluoromethoxy)phenyl)cyclohexyl)ethanamine] | – | 58 | IC50 ([1]; Human IC50 (nM) hDAT): > 10000 nM |
| CNC(C)C1(c2ccc(OC(F)(F)F)cc2)CCCCC1 (single isomer, unassigned) [64 E2, N-methyl-1-(1-(4-(trifluoromethoxy)phenyl)cyclohexyl)ethanamine] | – | 32 | IC50 ([1]; Human IC50 (nM) hDAT): 3640 nM |
| CNCC1(c2ccc(OC)cc2)CCCCC1O (single isomer, unassigned) [139 E1, cis-2-((methylamino)methyl)-2-(4-methoxyphenyl)cyclohexanol] | > 10000 | > 10000 | – |
| CNCC1(c2ccc(OC)cc2)CCCCC1O (single isomer, unassigned) [139 E2, cis-2-((methylamino)methyl)-2-(4-methoxyphenyl)cyclohexanol] | > 10000 | > 10000 | – |
| CC1(O)CCCC(CN)(c2ccc(Cl)c(Cl)c2)C1 (single isomer, unassigned) [193 E1, 3-Aminomethyl-3-(3,4-dichloro-phenyl)-1-methyl-cyclohexanol] | 266 | 416 | – |
| CC1(O)CCCC(CN)(c2ccc(Cl)c(Cl)c2)C1 (single isomer, unassigned) [193 E2, 3-Aminomethyl-3-(3,4-dichloro-phenyl)-1-methyl-cyclohexanol] | 3160 | 957 | – |
| COC1CCCC(CN)(c2ccc(Cl)c(Cl)c2)C1 (single isomer, unassigned) [195 E2] | 5320 | 45 | – |

| SMILES | IC50 [1, 3] [nM] | IC50 [2, 4] [nM] | further results |
| --- | --- | --- | --- |
| CNC(C)C1(c2ccc3ccccc3c2)CCC(C)(O)CC1 (single isomer, unassigned) [231 E1, 1-methyl-4-(1-(methylamino)ethyl)-4-(naphthalen-2-yl)cyclohexanol] | 460 | 1280 | – |
| CNC(C)C1(c2ccc3ccccc3c2)CCC(C)(O)CC1 (single isomer, unassigned) [231 E2, 1-methyl-4-(1-(methylamino)ethyl)-4-(naphthalen-2-yl)cyclohexanol] | 83 | 63 | – |
| CC(N(C)C)C1(c2ccc3ccccc3c2)CCC(C)(O)CC1 (single isomer, unassigned) [234 E1, 4-(1-(dimethylamino)ethyl)-1-methyl-4-(naphthalen-2-yl)cyclohexanol] | 346 | 3380 | – |
| CC(N(C)C)C1(c2ccc3ccccc3c2)CCC(C)(O)CC1 (single isomer, unassigned) [234 E2, 4-(1-(dimethylamino)ethyl)-1-methyl-4-(naphthalen-2-yl)cyclohexanol] | 21 | 18 | – |
| COC1CCCC(CN)(c2ccc(Cl)c(Cl)c2)C1 (single isomer, unassigned) [Compound 194] | 2370 | 330 | – |
| CN1Cc2c(ccc3c2OCO3)C2(CCC(C)(O)CC2)C1 (single isomer, unassigned) [Compound 294, 4',8-dimethyl-8,9-dihydro-7H-spiro([1,3]dioxolo[4,5-h]isoquinoline-6,1'-cyclohexan]-4'-ol] | > 10000 | > 10000 | – |
| CN1Cc2c(ccc3c2OCO3)C2(CCC(C)(O)CC2)C1 (single isomer, unassigned) [Compound 295, 4',8-dimethyl-8,9-dihydro-7H-spiro [[1,3]dioxolo[4,5-h]isoquinoline-6,1'-cyclohexan]-4'-ol] | > 10000 | > 10000 | – |
| NCC1(c2ccc(Cl)c(Cl)c2)CCC1 [Compound 1, (1-(3,4-dichlorophenyl)cyclobutyl)methanamine] | 103 | 1290 | – |
| CSc1ccc(C2(CN)CCCCC2)cc1 [Compound 10, (1-(4-(methylthio)phenyl)cyclohexyl)methanamine] | 2930 | – | IC50 [2, 5]: 1910 nM |
| CC(N)C1(c2ccc(-c3ccoc3)cc2)CCCCC1 (centres unmarked) [Compound 20, 1-(1-(4-(furan-3-yl)phenyl)cyclohexyl)ethanamine] | 275 | 24 | – |
| NCC1(c2ccc(-c3cc(F)cc(F)c3)cc2)CCCCC1 [Compound 23, (1-(3',5'-difluorobiphenyl-4-yl)cyclohexyl)methanamine] | 682 | 62 | – |
| NCC1(c2cccc(Cl)c2)CCCCC1 [Compound 28, (1-(3-chlorophenyl)cyclohexyl)methanamine hydrochloride] | 707 | 4560 | – |
| NCC1(c2ccc(Cl)cc2)CCCCC1 [Compound 29, (1-(4-chlorophenyl)cyclohexyl)methanamine hydrochloride] | 195 | 5240 | – |
| NCC1(c2ccc(C(F)(F)F)cc2)CCCCC1 [Compound 34, (1-(4-(trifluoromethyl)phenyl)-cyclohexyl)methanamine] | 5320 | – | IC50 [2, 5]: > 10000 nM |
| NCC1(c2ccc3c(c2)OCO3)CCCCC1 [Compound 35, (1-(benzo[d][1,3]dioxol-5-yl)cyclohexyl)methanamine] | 4710 | – | IC50 [2, 5]: > 10000 nM |
| NCC1(c2cccc(C(F)(F)F)c2)CCCCC1 [Compound 36, (1-(3-(trifluoromethyl)phenyl)-cyclohexyl)methanamine] | > 10000 | – | IC50 [2, 5]: 6550 nM |
| NCC1(c2cccc(F)c2)CCCCC1 [Compound 37, (1-(3-fluorophenyl)cyclohexyl)methanamine] | > 10000 | – | IC50 [2, 5]: > 10000 nM |
| NCC1(c2ccc3cc(F)ccc3c2)CCCCC1 [Compound 39, (1-(6-fluoronaphthalen-2-yl)cyclohexyl)methanamine] | 2240 | 295 | – |
| NCC1(c2ccc(F)c3ccccc23)CCCCC1 [Compound 40, (1-(4-fluoronaphthalen-1-yl)cyclohexyl)methanamine] | 2320 | 753 | – |
| CNCC1(c2ccc(Cl)c(Cl)c2)CCC1 [Compound 42, 1-(1-(3,4-dichlorophenyl)cyclobutyl)-N-methylmethanamine] | 761 | 935 | – |
| CSc1ccc(C2(CN(C)C)CCCCC2)cc1 [Compound 52, N,N-dimethyl-1-(1-(4-(methylthio)phenyl)cyclohexyl)methanamine] | – | 44 | IC50 ([1]; Human IC50 (nM) hDAT): 176 nM |
